Legend:
CDK9/CycT1 = biological target: T1, CDK9/CycT1 (Homo sapiens, UniProt P50750); experiment: CDK9/CycT1 high ATP kinase assay (TR-FRET); format: biochemical; conditions: 2 mM ATP; for IC50: Method 1b; for Selectivity high ATP CDK9 over high ATP CDK2: IC50 (high ATP CDK2)/IC50 (high ATP CDK9): minimal values where CDK9 IC50 is at the assay limit of about 1-2 nM
T1 construct: Recombinant full-length His-tagged human CDK9 and CycT1; His; purchased Life Technologies PV4131; host or cells: insect cells
Procedure: 1b. CDK9/CycT1 High ATP Kinase Assay
CDK9/CycT1-inhibitory activity of compounds of the present invention at a high ATP concentration after preincubation of enzyme and test compounds was quantified employing the CDK9/CycT1 TR-FRET assay as described in the following paragraphs.
Recombinant full-length His-tagged human CDK9 and CycT1, expressed in insect cells and purified by Ni-NTA affinity chromatography, were purchased from Life Technologies (Cat. No PV4131). As substrate for the kinase reaction biotinylated peptide biotin-Ttds-YISPLKSPYKISEG (C-terminus in amide form) was used which can be purchased e.g. form the company JERINI peptide technologies (Berlin, Germany).
For the assay 50 nl of a 100 fold concentrated solution of the test compound in DMSO was pipetted into either a black low volume 384 well microtiter plate or a black 1536 well microtiter plate (both Greiner Bio-One, Frickenhausen, Germany), 2 μl of a solution of CDK9/CycT1 in aqueous assay buffer [50 mM Tris/HCl pH 8.0, 10 mM MgCl2, 1.0 mM dithiothreitol, 0.1 mM sodium ortho-vanadate, 0.01% (v/v) Nonidet-P40 (Sigma)] were added and the mixture was incubated for 15 min at 22° C. to allow pre-binding of the test compounds to the enzyme before the start of the kinase reaction. […] The concentration of CDK9/CycT1 was adjusted depending of the activity of the enzyme lot and was chosen appropriate to have the assay in the linear range, typical concentrations were in the range of 0.5 μg/ml. The reaction was stopped by the addition of 3 μl of a solution of TR-FRET detection reagents (0.33 μM streptavidine-XL665 [Cisbio Bioassays, Codolet, France] and 1.67 nM anti-RB(pSer807/pSer811)-antibody from BD Pharmingen [#558389] and 2 nM LANCE EU-W1024 labeled anti-mouse IgG antibody [Perkin-Elmer, product no. AD0077]) in an aqueous EDTA-solution (167 mM EDTA, 0.2% (w/v) bovine serum albumin in 100 mM HEPES pH 7.5).
The resulting mixture was incubated 1 h at 22° C. to allow the formation of complex between the phosphorylated biotinylated peptide and the detection reagents. Subsequently the amount of phosphorylated substrate was evaluated by measurement of the resonance energy transfer from the Eu-chelate to the streptavidine-XL. Therefore, the fluorescence emissions at 620 nm and 665 nm after excitation at 350 nm was measured in a TR-FRET reader, e.g. a Pherastar (BMG Labtechnologies, Offenburg, Germany) or a Viewlux (Perkin-Elmer). The ratio of the emissions at 665 nm and at […] was taken as the measure for the amount of phosphorylated substrate. The data were normalised (enzyme reaction without inhibitor=0% inhibition, all other assay components but no enzyme=100% inhibition).

B16F10 cells = experiment: Proliferation assay, B16F10 (crystal violet); format: cell-based; conditions: Mus musculus, B16-F10, 96 h; B16F10, 4 days; read-out: Inhibition of B16F10 cell proliferation IC50
Procedure: (§1) Cultivated tumour cells (HeLa, human cervical tumour cells, ATCC CCL-2; NCI-H460, human non-small cell lung carcinoma cells, ATCC HTB-177; DU 145, hormone-independent human prostate carcinoma cells, ATCC HTB-81; HeLa-MaTu-ADR, multidrug-resistant human cervical carcinoma cells, EPO-GmbH Berlin; Caco-2, human colorectal carcinoma cells, ATCC HTB-37; B16F10, mouse melanoma cells, ATCC CRL-6475) were plated at a density of 5,000 cells/well (DU145, HeLa-MaTu-ADR), 3,000 cells/well (NCI-H460, HeLa), 1,500 cells/well (Caco-2), or 1,000 cells/well (B16F10) in a 96-well multititer plate in 200 μL of their respective growth medium supplemented 10% fetal calf serum. After 24 hours, the cells of one plate (zero-point plate) were stained with crystal violet (see below), while the medium of the other plates was supplemented with the test substances in various concentrations (0 μM, as well as in the range of 0.0001-10 μM; the final concentration of the solvent dimethyl sulfoxide was adjusted to 0.1%) using a Hewlett-Packard HP D300 Digital Dispenser. The cells were incubated for 4 days in the presence of test substances. Cell proliferation was determined by staining the cells with crystal violet: the cells were fixed by adding 20 μl/measuring point of an 11% glutaric aldehyde solution for 15 minutes at room temperature. After three washing cycles of the fixed cells with water, the plates were dried at room temperature. The cells were stained by adding 100 μl/measuring point of a 0.1% crystal violet solution (pH 3.0). After three washing cycles of the stained cells with water, the plates were dried at room temperature. The dye was dissolved by adding 100 μl/measuring point of a 10% acetic acid solution. The extinction was determined by photometry at a wavelength of 595 nm. The change of cell number, in percent, was calculated by normalization of the measured values to the extinction values of the zero-point plate (=0%) and the extinction of the untreated (0 Wm) cells (=100%). The IC50 values (inhibitory concentration at 50% of maximal effect) were determined by means of a 4 parameter fit.

DU145 cells = experiment: Proliferation assay, DU145 (crystal violet); format: cell-based; conditions: Homo sapiens, DU-145, 96 h; DU145, 4 days; read-out: Inhibition of DU145 cell proliferation IC50
Procedure: as §1

T1 sequence (P50750 whole entry): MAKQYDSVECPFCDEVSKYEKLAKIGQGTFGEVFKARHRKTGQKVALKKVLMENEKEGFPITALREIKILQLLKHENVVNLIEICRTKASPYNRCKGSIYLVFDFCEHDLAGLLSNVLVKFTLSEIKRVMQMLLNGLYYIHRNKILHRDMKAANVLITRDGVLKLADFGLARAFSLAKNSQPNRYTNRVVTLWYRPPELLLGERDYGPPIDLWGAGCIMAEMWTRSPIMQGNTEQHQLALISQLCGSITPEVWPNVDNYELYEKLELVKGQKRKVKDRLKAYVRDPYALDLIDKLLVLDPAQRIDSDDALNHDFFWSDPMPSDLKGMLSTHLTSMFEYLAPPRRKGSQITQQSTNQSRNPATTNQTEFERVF
T1 sequence (O60563 whole entry partner): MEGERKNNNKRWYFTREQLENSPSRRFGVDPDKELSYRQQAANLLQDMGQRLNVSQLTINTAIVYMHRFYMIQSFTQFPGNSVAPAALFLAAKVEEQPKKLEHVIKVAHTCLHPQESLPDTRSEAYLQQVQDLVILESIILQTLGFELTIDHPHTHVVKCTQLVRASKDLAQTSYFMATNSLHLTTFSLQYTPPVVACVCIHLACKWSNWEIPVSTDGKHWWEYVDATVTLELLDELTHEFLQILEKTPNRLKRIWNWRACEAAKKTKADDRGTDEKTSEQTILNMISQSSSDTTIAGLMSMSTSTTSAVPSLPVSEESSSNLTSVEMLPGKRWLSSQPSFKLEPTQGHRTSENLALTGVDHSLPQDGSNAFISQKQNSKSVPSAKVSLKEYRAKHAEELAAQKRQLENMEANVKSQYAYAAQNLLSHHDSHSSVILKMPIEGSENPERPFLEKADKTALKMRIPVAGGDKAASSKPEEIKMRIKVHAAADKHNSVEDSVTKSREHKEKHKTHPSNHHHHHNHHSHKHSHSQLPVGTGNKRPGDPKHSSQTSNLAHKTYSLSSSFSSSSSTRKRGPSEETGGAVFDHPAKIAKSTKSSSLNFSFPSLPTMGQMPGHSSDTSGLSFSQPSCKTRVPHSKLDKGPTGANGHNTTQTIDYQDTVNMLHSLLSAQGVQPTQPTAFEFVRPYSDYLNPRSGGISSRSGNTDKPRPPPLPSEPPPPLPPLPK

Row | IC50 (CDK9/CycT1) [nM] | Selectivity high ATP CDK9 over high ATP CDK2: IC50 (high ATP CDK2)/IC50 (high ATP CDK9) (CDK9/CycT1) | IC50 (B16F10 cells) [nM] | IC50 (DU145 cells) [nM] | SMILES
1 | 3.4 | 249 | 99 | 36 | CC(C)(C)OC(=O)N=S(C)(=O)Cc1cc2cc(c1)OCCCCNc1cc(ccc1F)-c1nc(ncc1F)N2 (racemic) [Example 1, (rac)-tert-butyl [{[3,20-difluoro-13-oxa-5,7,18,25-tetraazatetracyclo[17.3.1.1^2,6.1^8,12]pentacosa-1(23),2(25),3,5,8(24),9,11,19,21-nonaen-10-yl]methyl}(methyl)oxido-λ^6-sulfanylidene]carbamate]
2 | 0.8 | 606 | – | – | CC1CCCNc2cc(ccc2F)-c2nc(ncc2F)Nc2cc(CS(C)(=O)=O)cc(c2)O1 (racemic) [Example 8, (rac)-3,20-difluoro-14-methyl-10-[(methylsulfonyl)methyl]-13-oxa-5,7,18,25-tetraazatetracyclo[17.3.1.1^2,6.1^8,12]pentacosa-1(23),2(25),3,5,8(24),9,11,19,21-nonaene]
3 | 1.8 | 460 | 25 | 17 | CS(=N)(=O)Cc1cc2cc(c1)OCCCNc1cc(ccc1F)-c1nc(ncc1F)N2 (racemic) [Example 3, (rac)-3,19-difluoro-10-[(S-methylsulfonimidoyl)methyl]-13-oxa-5,7,17,24-tetraazatetracyclo[16.3.1.1^2,6.1^8,12]tetracosa-1(22),2(24),3,5,8(23),9,11,18,20-nonaene]
4 | 1.8 | 87 | 1.2 | 4.5 | CS(=N)(=O)Cc1cc2cc(c1)OCCCCNc1cc(ccc1F)-c1nc(ncc1F)N2 (racemic) [Example 2, (rac)-3,20-difluoro-10-[(S-methylsulfonimidoyl)methyl]-13-oxa-5,7,18,25-tetraazatetracyclo[17.3.1.1^2,6.1^8,12]pentacosa-1(23),2(25),3,5,8(24),9,11,19,21-nonaene]

— patent US11691986B2, “PTEFB inhibiting macrocyclic compounds” (Bayer Aktiengesellschaft, priority 2017, dated 2023)
